For one series, the target named is T1, human HDAC1 complex (Homo sapiens, UniProt Q13547).
T1 construct: Flag; made in house
Kind of series: HDAC1-Flag in vitro deacetylation assay. The class given is biochemical. The method, then:
Novel compounds were tested for their ability to inhibit histone deacetylase, subtype 1 (HDAC1) using an in vitro deacetylation assay. The enzyme source for this assay was an epitope-tagged human HDAC1 complex immuno-purified from stably expressing mammalian cells. The substrate consisted of a commercial product containing an acetylated lysine side chain (BIOMOL Research Laboratories, Inc., Plymouth Meeting, Pa.). Upon deacetylation of the substrate by incubation with the purified HDAC1 complex, a fluorophore is produced that is directly proportional to the level of deacetylation. Using a substrate concentration at the Km for the enzyme preparation, the deacetylation assay was performed in the presence of increasing concentrations of novel compounds to semi-quantitatively determine the concentration of compound required for 50% inhibition (IC50) of the deacetylation reaction.

In a further series the test system is HCT-116 cells. Kind of series: ATP (Vialight) cell proliferation assay, HCT-116. The class given is cell-based. Particulars: Homo sapiens. As to the method: (§1) The novel compounds of the present invention were tested for their ability to inhibit proliferation of the human cervical cancer (HeLa) and colon carcinoma (HCT116) cells.
(§2) In this assay, also referred to as the Vialight Assay, cellular ATP levels are measured as a means of quantifying cellular proliferation. This assay makes use of a bioluminescent method from Cambrex (ViaLight PLUS, cat. #LT07-121). In the presence of ATP, luciferase converts luciferin to oxyluciferin and light. The amount of light produced (emission at 565 nm) is measured and correlates with a relative amount of proliferation. Human cervical cancer (HeLa) or colon carcinoma (HCT116) cells were incubated with vehicle or increasing concentrations of compound for 48, 72 or 96 hours. Cell proliferation was quantified by adding the cell lysis reagent (provided in the Vialight assay kit) directly to culture wells, followed by addition of the ATP-monitoring reagent (containing luciferase/luciferin). The amount of light produced is then measured (emission at 565 nm). The quantity of light produced, as measured by […], is directly proportional to the number of living cells in culture.

Another series deals with Cyp3A4 (Homo sapiens, UniProt P08684). Kind of series: Cyp inhibition, Cyp3A4. The class given is in vitro ADME. As to conditions: read-out: Percent Cyp inhibition, Cyp3A4.
Another series addresses MK-499 binding (Homo sapiens, UniProt Q12809). Kind of series: MK-499 binding. Particulars: read-out: inflection point for MK-499 binding.
A further series deals with Cyp 2C9 (Homo sapiens, UniProt P11712). Kind of series: Cyp inhibition, Cyp2C9. The class given is in vitro ADME. As to conditions: read-out: Percent Cyp inhibition, 2C9.
In a further series the target is Cyp 2D6 (Homo sapiens, UniProt P10635). Kind of series: Cyp inhibition, Cyp2D6. The class given is in vitro ADME. As to conditions: read-out: Percent Cyp inhibition, 2D6.
The test system of series [1] is human cervical cancer (HeLa) or colon carcinoma (HCT116) cells. Kind of series: Prol-72 hr, ATP (Vialight) proliferation assay, cell line not given. The format is cell-based. Particulars: Table 2, IP = inflection point, cell line not stated. The method, then:
as §1, §2

The mark [2] stands for this setting: Table 2, IP = inflection point, read-out: HDAC1 IP*.
[3] abbreviates: Table 3, IP = inflection point, read-out: HDAC 1 IP*.

Results on 11 compounds are retold here after US8461189B2, “Pyridyl derivatives as histone deacetylase inhibitors” (Merck Sharp & Dohme Corp., priority 2007, dated 2013).

Like-named read-outs stand apart in the source and are kept apart here.

Cyp 2D6, sequence (P10635 whole entry): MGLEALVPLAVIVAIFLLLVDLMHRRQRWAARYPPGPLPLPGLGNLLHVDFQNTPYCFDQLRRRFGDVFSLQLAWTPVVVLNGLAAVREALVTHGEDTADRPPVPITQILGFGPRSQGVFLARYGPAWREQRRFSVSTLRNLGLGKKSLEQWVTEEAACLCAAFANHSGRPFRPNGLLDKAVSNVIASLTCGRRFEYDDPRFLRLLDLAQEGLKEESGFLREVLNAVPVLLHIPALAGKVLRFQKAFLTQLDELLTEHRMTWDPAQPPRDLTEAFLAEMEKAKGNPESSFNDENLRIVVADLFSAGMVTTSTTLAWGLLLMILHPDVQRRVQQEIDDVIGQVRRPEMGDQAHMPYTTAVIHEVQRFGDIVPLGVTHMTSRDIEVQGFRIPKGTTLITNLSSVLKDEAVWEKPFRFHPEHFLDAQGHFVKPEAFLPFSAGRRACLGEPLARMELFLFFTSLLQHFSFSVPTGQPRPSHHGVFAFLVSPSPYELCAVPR
MK-499 binding, sequence (Q12809 whole entry): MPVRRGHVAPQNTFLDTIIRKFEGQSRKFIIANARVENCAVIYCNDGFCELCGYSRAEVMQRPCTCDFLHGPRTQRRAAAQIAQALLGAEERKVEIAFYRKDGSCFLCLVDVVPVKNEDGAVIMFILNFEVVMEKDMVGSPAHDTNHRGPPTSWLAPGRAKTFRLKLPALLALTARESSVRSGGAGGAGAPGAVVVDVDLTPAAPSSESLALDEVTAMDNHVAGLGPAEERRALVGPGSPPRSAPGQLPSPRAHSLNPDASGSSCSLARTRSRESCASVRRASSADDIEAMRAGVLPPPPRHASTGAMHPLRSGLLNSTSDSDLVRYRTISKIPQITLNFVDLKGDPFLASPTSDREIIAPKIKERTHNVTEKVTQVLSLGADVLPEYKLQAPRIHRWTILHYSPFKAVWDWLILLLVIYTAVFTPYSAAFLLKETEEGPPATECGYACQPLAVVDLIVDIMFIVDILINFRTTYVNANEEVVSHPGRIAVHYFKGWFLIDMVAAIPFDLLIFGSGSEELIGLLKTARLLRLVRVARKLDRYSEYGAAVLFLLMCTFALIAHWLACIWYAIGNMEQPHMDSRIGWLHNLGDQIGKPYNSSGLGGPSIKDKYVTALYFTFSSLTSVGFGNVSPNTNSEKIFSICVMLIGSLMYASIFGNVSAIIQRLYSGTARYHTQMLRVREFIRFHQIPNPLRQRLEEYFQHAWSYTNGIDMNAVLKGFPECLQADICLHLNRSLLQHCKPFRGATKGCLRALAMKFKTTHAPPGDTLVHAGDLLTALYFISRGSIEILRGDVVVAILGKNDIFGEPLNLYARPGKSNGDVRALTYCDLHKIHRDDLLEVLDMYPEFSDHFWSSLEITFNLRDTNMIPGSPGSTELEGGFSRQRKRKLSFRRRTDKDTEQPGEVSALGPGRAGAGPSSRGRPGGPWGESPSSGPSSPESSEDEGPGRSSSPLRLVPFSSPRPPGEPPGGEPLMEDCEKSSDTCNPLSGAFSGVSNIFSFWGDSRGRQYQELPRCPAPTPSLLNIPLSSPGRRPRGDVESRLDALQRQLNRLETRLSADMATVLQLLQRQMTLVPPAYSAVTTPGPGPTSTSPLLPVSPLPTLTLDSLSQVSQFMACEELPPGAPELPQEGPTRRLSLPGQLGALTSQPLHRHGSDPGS
T1 sequence (Q13547 whole entry, one chain of several): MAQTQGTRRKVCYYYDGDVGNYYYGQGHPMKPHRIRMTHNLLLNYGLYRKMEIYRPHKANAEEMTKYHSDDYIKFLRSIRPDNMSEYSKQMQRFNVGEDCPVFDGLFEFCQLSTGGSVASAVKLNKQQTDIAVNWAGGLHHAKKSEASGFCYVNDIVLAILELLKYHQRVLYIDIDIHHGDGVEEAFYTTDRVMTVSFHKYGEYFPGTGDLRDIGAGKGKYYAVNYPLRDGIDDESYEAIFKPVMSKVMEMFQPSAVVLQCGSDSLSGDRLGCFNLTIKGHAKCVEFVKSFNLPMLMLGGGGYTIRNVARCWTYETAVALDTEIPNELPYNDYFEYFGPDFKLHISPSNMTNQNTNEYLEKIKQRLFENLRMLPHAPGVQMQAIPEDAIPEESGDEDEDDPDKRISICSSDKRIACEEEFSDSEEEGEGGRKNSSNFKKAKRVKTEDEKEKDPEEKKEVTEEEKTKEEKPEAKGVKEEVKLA
Cyp 2C9, sequence (P11712 whole entry): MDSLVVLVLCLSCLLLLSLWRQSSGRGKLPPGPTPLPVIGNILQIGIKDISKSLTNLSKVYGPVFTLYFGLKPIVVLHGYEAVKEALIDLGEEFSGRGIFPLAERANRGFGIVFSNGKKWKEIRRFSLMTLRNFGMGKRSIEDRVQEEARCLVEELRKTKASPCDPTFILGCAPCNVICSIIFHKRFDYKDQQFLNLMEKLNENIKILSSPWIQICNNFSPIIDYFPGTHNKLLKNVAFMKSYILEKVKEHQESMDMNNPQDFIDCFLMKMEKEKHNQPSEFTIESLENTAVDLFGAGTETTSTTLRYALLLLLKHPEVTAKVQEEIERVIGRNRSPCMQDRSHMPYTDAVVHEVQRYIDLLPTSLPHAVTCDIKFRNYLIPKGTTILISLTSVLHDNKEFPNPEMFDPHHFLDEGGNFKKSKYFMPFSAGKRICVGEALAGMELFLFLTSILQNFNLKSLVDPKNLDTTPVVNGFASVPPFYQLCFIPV
Cyp3A4, sequence (P08684 whole entry, species assumed): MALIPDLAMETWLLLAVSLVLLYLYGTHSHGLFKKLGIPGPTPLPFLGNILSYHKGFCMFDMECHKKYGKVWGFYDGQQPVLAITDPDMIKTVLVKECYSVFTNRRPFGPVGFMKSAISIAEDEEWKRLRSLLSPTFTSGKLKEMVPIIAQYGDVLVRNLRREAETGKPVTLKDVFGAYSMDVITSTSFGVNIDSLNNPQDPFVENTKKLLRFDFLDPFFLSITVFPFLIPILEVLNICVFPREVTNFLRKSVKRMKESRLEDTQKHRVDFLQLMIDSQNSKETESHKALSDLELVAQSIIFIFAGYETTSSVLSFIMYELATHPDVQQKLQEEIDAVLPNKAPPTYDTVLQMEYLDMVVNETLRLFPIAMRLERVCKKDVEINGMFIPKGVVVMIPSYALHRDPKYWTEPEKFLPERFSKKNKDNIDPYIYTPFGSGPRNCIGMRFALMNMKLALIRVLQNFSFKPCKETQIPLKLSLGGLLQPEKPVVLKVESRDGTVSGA

As to `Nc1ccc(-c2ccccc2)nc1NC(=O)c1ccccc1` [N-(3-amino-6-phenylpyridin-2-yl)benzamide], the IC50 at human HDAC1 complex (setting [2]) came to 1.16 µM.
As usually defined, the inhibition is the drop in the measured response relative to a control, in per cent. As to `Nc1ccc(-c2ccccc2)nc1NC(=O)c1ccc(CNC(=O)OCc2ccccn2)cc1` [Pyridin-2-ylmethyl(4-{[(3-amino-6-phenylpyridin-2-yl)amino]carbonyl}benzyl)carbamate], the IC50 with HCT-116 cells is 0.56 µM; on human HDAC1 complex (read-out: in vitro HDAC1 IC50), 0.035 µM; on MK-499 binding, 2540 µM. The figures for the inhibition at 10 µM on Cyp3A4, on Cyp 2C9 and at Cyp 2D6 were 27%, 47% and 24%, respectively.
For the compound `CCOC(=O)NCc1ccc(C(=O)Nc2nc(-c3ccccc3)ccc2N)cc1` [ethyl (4-{[(3-amino-6-phenylpyridin-2-yl)amino]carbonyl}benzyl)carbamate], the IC50 at human HDAC1 complex (setting [3]) was determined as 0.011 µM.
On to `CC(=O)Nc1ccc(C(=O)Nc2nc(-c3ccccc3)ccc2N)cc1` [4-(Acetylamino)-N-(3-amino-6-phenylpyridin-2-yl)benzamide], for which the results for the IC50 with HCT-116 cells and at human HDAC1 complex (read-out: in vitro HDAC1 IC50) were 2.05 µM and 0.086 µM, respectively.
As to `COC(=O)c1ccc(C(=O)Nc2nc(-c3ccccc3)ccc2N)cc1` [benzoic acid, methyl 4-[[(3-amino-6-phenyl-2-pyridinyl)amino]carbonyl]benzoate], the IC50 in series [1] came out at 20 µM; on human HDAC1 complex (setting [2]) it was 0.195 µM.
In the case of `Nc1ccc(-c2ccccc2)nc1NC(=O)c1ccc(CNC(=O)OCc2cccnc2)cc1` [Pyridin-3-ylmethyl[(4-{[(3-amino-6-phenylpyridin-2-yl)amino]carbonyl}phenyl)methyl]carbamate], the results for the IC50 in the series on HCT-116 cells, on human HDAC1 complex (read-out: in vitro HDAC1 IC50) and at MK-499 binding were 0.58 µM, 0.084 µM and over 30 µM, respectively. Also, the inhibition at 10 µM was 46% at Cyp3A4, 54% at Cyp 2C9 and 55% at Cyp 2D6.
In the case of `CC(C)(C)c1ccc(C(=O)Nc2nc(-c3ccccc3)ccc2N)cc1` [N-(3-amino-6-phenyl-2-pyridinyl)-4-(1,1-dimethylethyl) benzamide], the IC50 in series [1] was determined as 20 µM; at human HDAC1 complex (setting [2]), 0.235 µM.
`Nc1ccc(-c2ccccc2)nc1NC(=O)c1ccc(CNC(=O)Oc2ccccc2)cc1` [phenyl (4-{[(3-amino-6-phenylpyridin-2-yl)amino]carbonyl}benzyl)carbamate]: on human HDAC1 complex (setting [3]), the IC50 stood at 0.012 µM.
As for `COC(=O)NCc1ccc(C(=O)Nc2nc(-c3ccccc3)ccc2N)cc1` [Methyl(4-{[(3-amino-6-phenylpyridin-2-yl)amino]carbonyl}benzyl)carbamate], the IC50 in the series with HCT-116 cells is 1.2 µM; at human HDAC1 complex (read-out: in vitro HDAC1 IC50) it was 0.037 µM; at MK-499 binding, over 10 µM. Also, the inhibition at 10 µM was found to be 29% on Cyp3A4, 49% on Cyp 2C9 and 27% at Cyp 2D6.
As to `Nc1ccc(-c2cccs2)nc1NC(=O)c1ccc(CNC(=O)OCc2cccnc2)cc1` [pyridin-3-ylmethyl {[4-({[3-amino-6-(2-thienyl)pyridin-2-yl]amino}carbonyl)phenyl]methyl}carbamate], the IC50 in the series with HCT-116 cells is 0.56 µM; at human HDAC1 complex (read-out: in vitro HDAC1 IC50), 0.056 µM.
For `Nc1ccc(-c2ccccc2)nc1NC(=O)c1ccc(CNC(=O)OCc2ccccc2)cc1` [Benzyl(4-{[(3-amino-6-phenylpyridin-2-yl)amino]carbonyl}benzyl)carbamate], the IC50 in the series with HCT-116 cells is 0.59 µM; at human HDAC1 complex (read-out: in vitro HDAC1 IC50) it was 0.032 µM; at MK-499 binding it was 12.2 µM. Moreover, the inhibition at 10 µM was found to be 7% on Cyp3A4, 25% at Cyp 2C9 and 24% on Cyp 2D6.
